For six compounds, Activity results are on record in ChEMBL document CHEMBL4765228, “Indole-like Trk receptor antagonists” (Eur J Med Chem, 2016).

Test [1] has as its target MAP/microtubule affinity-regulating kinase 3 (Homo sapiens) (UniProt P27448). The test is described as follows: Inhibition of human MARK3 assessed as residual activity at 0.1 uM relative to control.
In test [2] the target is Myosin light chain kinase, smooth muscle (Homo sapiens) (UniProt Q15746). The test is described as follows: Inhibition of human MYLK assessed as residual activity at 0.1 uM relative to control.
Test [3] concerns the target Aurora kinase B (Homo sapiens) (UniProt Q96GD4). The test is described as follows: Inhibition of human Aurora-B assessed as residual activity at 0.1 uM relative to control.
In test [4] the target is Casein kinase II subunit alpha (Homo sapiens) (UniProt P68400). Kind of test: Inhibition of human CK2alpha1 assessed as residual activity at 1 uM relative to control.
Casein kinase II subunit alpha (Homo sapiens), sequence (P68400 whole entry, looked up): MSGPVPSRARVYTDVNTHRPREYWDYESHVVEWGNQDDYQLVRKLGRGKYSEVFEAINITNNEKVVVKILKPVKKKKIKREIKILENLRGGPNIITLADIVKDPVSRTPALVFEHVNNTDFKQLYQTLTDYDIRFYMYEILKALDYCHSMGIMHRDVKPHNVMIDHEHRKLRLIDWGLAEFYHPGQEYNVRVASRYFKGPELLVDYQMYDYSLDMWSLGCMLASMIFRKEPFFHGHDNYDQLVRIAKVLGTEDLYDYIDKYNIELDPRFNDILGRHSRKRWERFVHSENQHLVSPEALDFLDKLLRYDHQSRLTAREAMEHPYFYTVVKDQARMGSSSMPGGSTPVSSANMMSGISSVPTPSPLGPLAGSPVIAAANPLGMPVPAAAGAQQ
The target in test [5] is Ephrin type-A receptor 2 (Homo sapiens) (UniProt P29317). The test is described as follows: Inhibition of human EPHA2 assessed as residual activity at 0.1 uM relative to control.
Ephrin type-A receptor 2 (Homo sapiens), sequence (P29317 whole entry): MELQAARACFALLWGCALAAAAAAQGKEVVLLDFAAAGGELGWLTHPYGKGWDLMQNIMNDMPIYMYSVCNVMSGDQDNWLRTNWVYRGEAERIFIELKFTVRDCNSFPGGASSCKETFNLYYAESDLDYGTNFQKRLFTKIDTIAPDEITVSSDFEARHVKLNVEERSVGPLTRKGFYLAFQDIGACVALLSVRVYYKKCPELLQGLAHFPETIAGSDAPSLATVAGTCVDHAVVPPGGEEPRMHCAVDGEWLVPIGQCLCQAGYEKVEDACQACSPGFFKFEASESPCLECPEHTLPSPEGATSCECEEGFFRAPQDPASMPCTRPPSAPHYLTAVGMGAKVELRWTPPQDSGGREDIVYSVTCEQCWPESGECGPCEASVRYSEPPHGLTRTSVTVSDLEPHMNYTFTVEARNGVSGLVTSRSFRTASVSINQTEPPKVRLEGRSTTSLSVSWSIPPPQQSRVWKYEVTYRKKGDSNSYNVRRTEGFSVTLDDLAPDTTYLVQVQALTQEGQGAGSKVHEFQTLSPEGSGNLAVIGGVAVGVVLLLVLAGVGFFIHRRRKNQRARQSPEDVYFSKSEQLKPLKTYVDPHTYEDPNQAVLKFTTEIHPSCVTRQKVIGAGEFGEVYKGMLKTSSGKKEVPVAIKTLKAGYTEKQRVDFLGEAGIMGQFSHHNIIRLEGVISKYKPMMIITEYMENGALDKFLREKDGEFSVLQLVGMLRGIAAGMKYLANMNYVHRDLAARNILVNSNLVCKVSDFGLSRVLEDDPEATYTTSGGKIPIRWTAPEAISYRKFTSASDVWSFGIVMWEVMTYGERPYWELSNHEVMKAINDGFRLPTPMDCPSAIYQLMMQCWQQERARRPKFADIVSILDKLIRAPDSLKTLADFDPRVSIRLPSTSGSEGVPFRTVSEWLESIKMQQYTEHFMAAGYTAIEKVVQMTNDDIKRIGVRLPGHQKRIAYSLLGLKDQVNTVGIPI
The target is the same in test [6]. The test is described as follows: Inhibition of human EPHA2 assessed as residual activity at 1 uM relative to control.
For test [7], the target named is Glycogen synthase kinase-3 beta (Homo sapiens) (UniProt P49841). Kind of test: Inhibition of human GSK3-beta assessed as residual activity at 0.1 uM relative to control.
The target is the same in test [8]. Kind of test: Inhibition of human GSK3-beta assessed as residual activity at 1 uM relative to control.
Test [9] concerns the target T1, Interleukin-1 receptor-associated kinase 4 (Homo sapiens) (UniProt Q9NWZ3).
T1 sequence (whole entry): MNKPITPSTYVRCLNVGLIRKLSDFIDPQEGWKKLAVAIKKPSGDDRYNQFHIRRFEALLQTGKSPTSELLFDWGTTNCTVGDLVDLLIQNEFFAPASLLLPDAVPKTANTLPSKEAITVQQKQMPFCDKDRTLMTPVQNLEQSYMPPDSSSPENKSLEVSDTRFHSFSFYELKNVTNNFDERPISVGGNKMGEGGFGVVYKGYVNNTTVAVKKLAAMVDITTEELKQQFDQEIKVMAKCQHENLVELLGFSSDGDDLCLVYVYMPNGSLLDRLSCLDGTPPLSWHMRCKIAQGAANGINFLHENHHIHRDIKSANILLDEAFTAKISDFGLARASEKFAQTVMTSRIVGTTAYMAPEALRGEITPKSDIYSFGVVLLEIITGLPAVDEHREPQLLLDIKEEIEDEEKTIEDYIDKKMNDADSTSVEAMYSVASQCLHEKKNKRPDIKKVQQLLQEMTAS
Kind of test: Inhibition of human untagged IRAK4 assessed as residual activity at 1 uM relative to control.

Test [10] addresses Tyrosine-protein kinase JAK2 (Homo sapiens) (UniProt O60674). The test is described as follows: Inhibition of human JAK2 assessed as residual activity at 0.1 uM relative to control.
Test [11] addresses Tyrosine-protein kinase Lck (Homo sapiens) (UniProt P06239). Kind of test: Inhibition of human LCK assessed as residual activity at 0.1 uM relative to control.
The target of test [12] is Mitogen-activated protein kinase kinase kinase 11 (Homo sapiens) (UniProt Q16584). The test is described as follows: Inhibition of human MAP3K11 assessed as residual activity at 1 uM relative to control.
Mitogen-activated protein kinase kinase kinase 11 (Homo sapiens), sequence (Q16584 whole entry, looked up): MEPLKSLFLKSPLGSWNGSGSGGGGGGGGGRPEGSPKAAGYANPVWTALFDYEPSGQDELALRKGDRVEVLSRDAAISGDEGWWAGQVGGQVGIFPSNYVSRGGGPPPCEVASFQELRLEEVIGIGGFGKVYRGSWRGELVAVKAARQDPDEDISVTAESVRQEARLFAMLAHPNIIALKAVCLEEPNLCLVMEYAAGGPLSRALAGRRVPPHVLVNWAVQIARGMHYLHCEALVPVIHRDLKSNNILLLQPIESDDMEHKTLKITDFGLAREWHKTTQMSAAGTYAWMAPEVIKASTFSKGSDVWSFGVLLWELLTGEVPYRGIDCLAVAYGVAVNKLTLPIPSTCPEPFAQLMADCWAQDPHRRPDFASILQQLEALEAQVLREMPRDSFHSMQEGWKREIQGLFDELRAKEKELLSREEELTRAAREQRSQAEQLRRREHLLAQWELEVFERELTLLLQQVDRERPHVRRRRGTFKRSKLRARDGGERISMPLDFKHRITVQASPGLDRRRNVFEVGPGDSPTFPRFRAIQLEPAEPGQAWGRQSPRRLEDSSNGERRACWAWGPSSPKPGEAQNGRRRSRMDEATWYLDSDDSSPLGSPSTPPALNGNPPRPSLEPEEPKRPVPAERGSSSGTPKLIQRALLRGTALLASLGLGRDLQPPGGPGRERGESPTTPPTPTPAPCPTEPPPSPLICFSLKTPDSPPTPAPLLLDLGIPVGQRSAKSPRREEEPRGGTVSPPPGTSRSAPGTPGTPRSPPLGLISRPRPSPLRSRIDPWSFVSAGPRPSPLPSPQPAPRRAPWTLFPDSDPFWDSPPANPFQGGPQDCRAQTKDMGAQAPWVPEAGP
The target of test [13] is Serine/threonine-protein kinase PAK 4 (Homo sapiens) (UniProt O96013). Kind of test: Inhibition of human PAK4 assessed as residual activity at 1 uM relative to control.
Serine/threonine-protein kinase PAK 4 (Homo sapiens), sequence (O96013 whole entry, looked up): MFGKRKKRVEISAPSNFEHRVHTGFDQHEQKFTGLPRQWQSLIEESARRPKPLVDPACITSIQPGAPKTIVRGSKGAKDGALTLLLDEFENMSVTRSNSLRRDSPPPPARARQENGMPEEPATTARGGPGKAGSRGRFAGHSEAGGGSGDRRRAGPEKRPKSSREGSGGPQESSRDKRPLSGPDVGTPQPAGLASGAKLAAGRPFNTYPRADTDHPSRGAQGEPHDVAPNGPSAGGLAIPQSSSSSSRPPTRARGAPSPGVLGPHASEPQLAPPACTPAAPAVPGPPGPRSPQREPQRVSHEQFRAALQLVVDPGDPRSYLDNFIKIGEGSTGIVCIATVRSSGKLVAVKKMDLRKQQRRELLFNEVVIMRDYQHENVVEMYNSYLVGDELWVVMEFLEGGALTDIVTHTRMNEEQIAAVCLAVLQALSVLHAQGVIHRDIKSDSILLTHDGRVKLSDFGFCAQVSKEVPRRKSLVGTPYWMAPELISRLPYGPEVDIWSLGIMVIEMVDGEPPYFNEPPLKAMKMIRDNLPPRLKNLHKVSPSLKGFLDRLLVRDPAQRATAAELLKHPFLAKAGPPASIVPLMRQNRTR
For test [14], the target named is Serine/threonine-protein kinase pim-1 (Homo sapiens) (UniProt P11309). The test is described as follows: Inhibition of human PIM1 assessed as residual activity at 1 uM relative to control.
The target in test [15] is Protein kinase C alpha type (Homo sapiens) (UniProt P17252). Kind of test: Inhibition of human PKCalpha assessed as residual activity at 1 uM relative to control.
For test [16], the target named is Serine/threonine-protein kinase PLK1 (Homo sapiens) (UniProt P53350). The test is described as follows: Inhibition of human PLK1 assessed as residual activity at 1 uM relative to control.
In test [17] the target is Serine/threonine-protein kinase N2 (Homo sapiens) (UniProt Q16513). Kind of test: Inhibition of human PRK2 assessed as residual activity at 1 uM relative to control.
Test [18] deals with T2, Serine/threonine-protein kinase TBK1 (Homo sapiens) (UniProt Q9UHD2).
T2 sequence (whole entry): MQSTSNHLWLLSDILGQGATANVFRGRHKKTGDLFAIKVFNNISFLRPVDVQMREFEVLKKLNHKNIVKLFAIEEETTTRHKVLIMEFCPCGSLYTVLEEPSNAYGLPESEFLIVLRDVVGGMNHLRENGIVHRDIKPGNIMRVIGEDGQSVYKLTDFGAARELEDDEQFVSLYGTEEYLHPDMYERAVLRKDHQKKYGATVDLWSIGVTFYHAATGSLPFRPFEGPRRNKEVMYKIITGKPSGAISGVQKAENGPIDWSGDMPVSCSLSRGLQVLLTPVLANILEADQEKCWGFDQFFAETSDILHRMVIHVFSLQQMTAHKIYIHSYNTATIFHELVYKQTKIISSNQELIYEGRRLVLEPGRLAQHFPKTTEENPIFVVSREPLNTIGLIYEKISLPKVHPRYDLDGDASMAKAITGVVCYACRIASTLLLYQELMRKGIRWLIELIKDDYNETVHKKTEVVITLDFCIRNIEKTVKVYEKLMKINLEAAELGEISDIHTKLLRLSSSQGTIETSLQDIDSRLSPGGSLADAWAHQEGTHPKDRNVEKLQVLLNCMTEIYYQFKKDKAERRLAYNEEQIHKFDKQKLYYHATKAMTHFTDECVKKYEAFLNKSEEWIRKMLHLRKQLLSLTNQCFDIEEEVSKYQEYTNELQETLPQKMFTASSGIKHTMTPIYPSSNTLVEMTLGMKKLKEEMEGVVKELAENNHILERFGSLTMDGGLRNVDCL
Kind of test: Inhibition of human TBK1 assessed as residual activity at 0.1 uM relative to control.

Test [19] has as its target High affinity nerve growth factor receptor (Homo sapiens, UniProt P04629). Kind of test: Inhibition of human TRKA assessed as residual activity at 1 uM relative to control.
In test [20] the target is Vascular endothelial growth factor receptor 1 (Homo sapiens) (UniProt P17948). Kind of test: Inhibition of human VEGFR1 assessed as residual activity at 0.1 uM relative to control.
Vascular endothelial growth factor receptor 1 (Homo sapiens), sequence (P17948 whole entry): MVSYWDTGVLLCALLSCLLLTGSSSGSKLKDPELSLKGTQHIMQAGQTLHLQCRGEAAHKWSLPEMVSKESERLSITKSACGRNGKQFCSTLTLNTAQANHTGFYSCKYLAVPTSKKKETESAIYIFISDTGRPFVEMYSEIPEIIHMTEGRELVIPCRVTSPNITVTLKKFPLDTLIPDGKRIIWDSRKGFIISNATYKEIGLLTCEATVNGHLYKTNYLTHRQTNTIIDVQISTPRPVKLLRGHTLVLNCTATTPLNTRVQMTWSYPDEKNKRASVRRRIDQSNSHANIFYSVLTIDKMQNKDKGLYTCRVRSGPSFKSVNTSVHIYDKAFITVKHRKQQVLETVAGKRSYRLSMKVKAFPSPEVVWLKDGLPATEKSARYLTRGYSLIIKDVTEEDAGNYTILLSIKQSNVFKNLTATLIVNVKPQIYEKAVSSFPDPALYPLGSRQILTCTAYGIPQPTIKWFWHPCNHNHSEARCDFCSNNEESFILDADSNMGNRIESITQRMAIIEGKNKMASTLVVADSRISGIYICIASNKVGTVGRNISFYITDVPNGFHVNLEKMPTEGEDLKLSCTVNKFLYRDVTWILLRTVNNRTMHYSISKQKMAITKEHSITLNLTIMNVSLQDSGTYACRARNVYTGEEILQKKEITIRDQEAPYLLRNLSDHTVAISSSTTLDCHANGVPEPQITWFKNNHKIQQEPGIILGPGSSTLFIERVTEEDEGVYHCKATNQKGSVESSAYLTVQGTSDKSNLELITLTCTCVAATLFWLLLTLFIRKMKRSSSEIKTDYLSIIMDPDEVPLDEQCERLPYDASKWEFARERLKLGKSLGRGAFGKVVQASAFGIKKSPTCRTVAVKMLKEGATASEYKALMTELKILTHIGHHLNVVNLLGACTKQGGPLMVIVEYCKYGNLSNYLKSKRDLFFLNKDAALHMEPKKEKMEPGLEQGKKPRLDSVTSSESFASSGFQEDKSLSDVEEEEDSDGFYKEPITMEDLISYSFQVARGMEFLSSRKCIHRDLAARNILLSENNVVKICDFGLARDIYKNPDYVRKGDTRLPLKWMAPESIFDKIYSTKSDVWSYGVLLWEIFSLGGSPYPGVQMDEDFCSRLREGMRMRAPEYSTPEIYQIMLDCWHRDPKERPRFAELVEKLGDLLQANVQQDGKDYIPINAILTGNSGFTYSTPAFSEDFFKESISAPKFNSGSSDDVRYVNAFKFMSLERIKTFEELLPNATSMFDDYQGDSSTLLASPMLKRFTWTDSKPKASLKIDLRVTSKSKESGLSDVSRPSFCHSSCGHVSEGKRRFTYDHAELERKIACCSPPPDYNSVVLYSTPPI

The structures appear in SMILES notation.

For the compound `CNS(=O)(=O)c1ccc2c(c1)/C(=C/c1cn(C)c3ccc(OC)cc13)C(=O)N2`, the Activity worked out at 100% in [1]; 92% in test [2]; 74% in [3]; 100% in [4]; 100% in test [5]; 84% in test [6]. For the same compound, the Activity in [7] came to 90%; in test [8], 90%; in [9], 37%; in test [10], 89%; in [11], 45%; in test [12], 55%. Besides, the Activity is 91% in test [13]; 88% in test [14]; 103% in [15]; 87% in test [16]; 86% in [17]; 97% in test [18]. The Activity came out at 3% in [19] and 91% in test [20].
Take `CN(C)S(=O)(=O)c1ccc2c(c1)/C(=C/c1cn(C)c3ccc(O)cc13)C(=O)N2`: the Activity in test [1] is 103%; in [2] it was 91%; in test [3], 43%; in test [4], 89%; in test [5], 111%; in [6] it was 98%. Besides, the Activity came to 99% in [7]; 92% in test [8]; 52% in [9]; 78% in test [10]; 62% in test [11]; 51% in test [12]. Further, the Activity is 90% in [13]; 95% in test [14]; 103% in test [15]; 91% in test [16]; 89% in [17]; 96% in test [18]. Moreover, the figures for the Activity in test [19] and in test [20] were 2% and 100%, respectively.
With `COc1ccc2[nH]cc(/C=C3\C(=O)Nc4ccc(S(N)(=O)=O)cc43)c2c1`, the Activity worked out at 101% in test [1]; 94% in [2]; 95% in [3]; 84% in test [4]; 110% in [5]; 98% in [6]. The Activity in [7] was 103%; in [8], 79%; in [9] it was 9%; in test [10], 91%; in [11], 72%; in test [12], 25%. Also, the Activity worked out at 82% in test [13]; 79% in [14]; 87% in test [15]; 95% in [16]; 81% in test [17]; 96% in test [18]. For the same compound, the values for the Activity in test [19] and in [20] were 0% and 96%, respectively.
Consider `COc1ccc2c(c1)c(/C=C1\C(=O)Nc3ccc(S(=O)(=O)N(C)C)cc31)cn2C`, for which the Activity in test [1] was determined as 93%; in test [2] it was 94%; in test [3] it was 85%; in [4] it was 90%; in test [5] it was 106%; in test [6], 89%. For the same compound, the Activity was found to be 98% in test [7]; 97% in test [8]; 83% in test [9]; 88% in test [10]; 81% in test [11]; 37% in test [12]. Besides, the Activity in [13] turned out to be 99%; in [14] it was 97%; in [15] it was 95%; in test [16] it was 93%; in [17] it was 94%; in test [18], 100%. The Activity was 6% in test [19] and 96% in test [20].
`COc1ccc2c(c1)c(/C=C1\C(=O)Nc3ccc(S(N)(=O)=O)cc31)cn2C`: the Activity turned out to be 96% in test [1]; 94% in test [2]; 79% in test [3]; 94% in test [4]; 98% in test [5]; 89% in test [6]. Further, the Activity in [7] turned out to be 93%; in test [8], 83%; in test [9], 20%; in [10] it was 90%; in test [11], 65%; in test [12], 38%. Also, the Activity is 68% in test [13]; 88% in test [14]; 102% in [15]; 93% in test [16]; 89% in test [17]; 79% in test [18]. Also, the Activity was found to be 1% in [19] and 94% in test [20].
Take `Cn1cc(/C=C2\C(=O)Nc3ccc(S(N)(=O)=O)cc32)c2ccccc21`: the Activity in [1] was 93%; in test [2], 97%; in test [3], 59%; in test [4], 96%; in test [5] it was 99%; in test [6], 90%. Moreover, the Activity was determined as 104% in test [7]; 92% in test [8]; 3% in [9]; 85% in [10]; 64% in test [11]; 12% in [12]. Besides, the Activity in test [13] is 78%; in [14] it was 93%; in [15], 94%; in test [16] it was 91%; in test [17] it was 78%; in test [18] it was 75%. For the same compound, the Activity is 2% in [19] and 82% in test [20].
